Values of other authors in article PMC6791383, “A side-by-side evaluation of [^18F]FDOPA enantiomers for non-invasive detection of neuroendocrine tumors by positron emission tomography” (Oncotarget, 2019).

System: LAT1
Parameters: method as in PMID 21770378, PMID 11901210, PMID 25205473, PMID 30048132
Settings: cited from earlier work

Question: With N[C@@H](Cc1ccc(O)c(O)c1)C(=O)O [L-DOPA, 3,4-dihydroxy-L-phenylalanine] as the molecule, how does the IC50 read?
Answer: 69 ± 29 µM
